Test results taken from US20100062994A1, “Adenosine Receptor Antagonists” (SANTARIS PHARMA A/S, priority 2006, published 2010).
pIC50: −log10 of the molar value.

Target: T1, A3 human recombinant receptor (Homo sapiens, UniProt P0DMS8)
T1 sequence (P0DMS8 1-318): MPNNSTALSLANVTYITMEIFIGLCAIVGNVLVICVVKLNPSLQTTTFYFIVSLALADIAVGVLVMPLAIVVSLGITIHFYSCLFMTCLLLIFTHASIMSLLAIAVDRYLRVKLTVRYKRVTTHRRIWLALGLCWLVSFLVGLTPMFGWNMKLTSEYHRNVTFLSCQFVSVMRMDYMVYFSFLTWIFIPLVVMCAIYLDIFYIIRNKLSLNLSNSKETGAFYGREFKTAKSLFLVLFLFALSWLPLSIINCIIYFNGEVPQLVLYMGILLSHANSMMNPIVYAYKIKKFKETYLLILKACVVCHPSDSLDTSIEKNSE
Experiment: AequoScreen adenosine A3 receptor assay, antagonist mode (luminescence, against reference agonist IB-MECA)
Type: cell-based
Conditions: AequoScreen cells expressing A3 human recombinant receptor and Gα16; inhibition of IB-MECA at EC80; duplicate determinations at 8 concentrations
Procedure: AequoScreen™ (Euroscreen, Belgium) cell lines expressing the A3 human recombinant receptor and the promiscuous G protein Gα16 were used throughout the study. AequoScreen™ cells were cultured following recommended conditions for at least one week prior to the test. The day before the test, cells were harvested with PBS-EDTA, washed and re-suspended in BSA-DMEM12 (Dulbecco's Modified Eagles Medium—Ham's F12 with 0.1% BSA). Suspended cells were then incubated at room temperature with coelenterazine h overnight. For agonist and antagonist testing, 50 μl of the cell suspension were injected onto 50 μl of the test compound or control in 96-well plates, and the resulting emission of light measured for the determination of cell activation. After the first reading, and following an incubation time of 15-30 min, 100 μl of the reference agonist (IB-MECA) at a concentration equal to the EC80 of the day of the experiment were injected onto the cell suspension containing the test compounds. The resulting emission of light was measured for the determination of antagonistic effects. Light emission for agonist and antagonist tests was recorded using a Hamamatsu FDSS-6000 reader. For agonist data, percentages of activation were calculated on the basis of the activation (luminescence data) induced by the reference agonist at a saturating concentration (EC100). For antagonist data, percentages of inhibition were calculated on the basis of the activation (luminescence data) induced by the reference agonist at a concentration equal to the EC80. The test compounds were tested as duplicate determinations at 8 concentrations of 100, 10, 1, 0.1 μM and 10, 1, 0.1, and 0.01 nM for agonist activity and 50, 5, 0.5, 0.05 μM and 5, 0.5, 0.05, and 0.005 nM for antagonist activity. Dose-response data, EC50/IC50, from test compound was analyzed with XLfit (IDBS) software.
This assay may be used to determine the IC50 value for adenosine A3 antagonists according to the invention (see Example 42).

Row | SMILES | pIC50
1 | OCC12CNC(C(n3cnc4c(NCc5cccc(I)c5)ncnc43)O1)C2O (single isomer, unassigned) [SPN0240] | 7.03
2 | OCC12CNC(C(n3cnc4c(NCc5cccc(I)c5)ncnc43)O1)C2O (single isomer, unassigned) [SPN0234] | 8.09
3 | OC[C@@]12CO[C@@H]([C@H](n3cnc4c(NCc5cccc(I)c5)nc(Cl)nc43)O1)[C@@H]2O [SPN0174, (1S,3R,4R,7S)-7-Hydroxy-1-hydroxymethyl-3-(N6-(3-iodobenzyl)-2-chloro-adenin-9-yl)-2,5-dioxabicyclo[2:2:1]heptane] | 6.68
4 | CNC(=O)[C@@]12CN[C@@H]([C@H](n3cnc4c(N)ncnc43)O1)[C@@H]2O [SPN0238, (1R,3R,4R,7S)-(7-hydroxy-3-(adenin-9-yl)-2-oxa-5-azabicyclo[2:2:1]hept-1-yl)-N-methylcarboxamide] | 6.76
5 | CNC(=O)[C@]12CO[C@@H]([C@H](n3cnc4c(NCc5cccc(I)c5)nc(Cl)nc43)O1)[C@@H]2O [SPN0175, (1R,3R,4R,7S)-(7-hydroxy-3-(N6-(3-iodobenzyl)-2-chloro-adenin-9-yl)-2,5-dioxabicyclo[2:2:1]hept-1-yl)-N-methylcarboxamide] | 6.41

Results, then the compound that gave them:

Row | pIC50 | SMILES
6 | 6.17 | CNC(=O)[C@@]12CO[C@@H]([C@H](n3cnc4c(NCc5cccc(I)c5)ncnc43)O1)[C@@H]2N [SPN0195, (1S,3R,4R,7S)-(7-amino-3-(N6-(3-iodobenzyl)-adenin-9-yl)-2,5-dioxabicyclo[2:2:1]hept-1-yl)-N-methylcarboxamide]
7 | 6.81 | OC[C@@]12CO[C@@H]([C@H](n3cnc4c(NCc5cccc(I)c5)ncnc43)O1)[C@@H]2O [SPN0169, (1S,3R,4R,7S)-7-Hydroxy-1-hydroxymethyl-3-(N6-(3-iodobenzyl)-adenin-9-yl)-2,5-dioxabicyclo[2:2:1]heptane]
8 | 6.20 | CNC(=O)[C@@]12CO[C@@H]([C@H](n3cnc4c(NCc5cccc(Br)c5)ncnc43)O1)[C@@H]2O [SPN0186, (1R,3R,4R,7S)-(7-hydroxy-3-(N6-(3-bromobenzyl)-adenin-9-yl)-2,5-dioxabicyclo[2:2:1]hept-1-yl)-N-methylcarboxamide]
9 | 7.92 | CNC(=O)[C@@]12CN[C@@H]([C@H](n3cnc4c(NCc5cccc(I)c5)ncnc43)O1)[C@@H]2O [SPN0235, (1R,3R,4R,7S)-(7-hydroxy-3-(N6-(3-iodobenzyl)-adenin-9-yl)-2-oxa-5-azabicyclo[2:2:1]hept-1-yl)-N-methylcarboxamide]
10 | 6.09 | CNC(=O)[C@@]12CO[C@@H]([C@H](n3cnc4c(NCc5cccc(I)c5)ncnc43)O1)[C@@H]2N=[N+]=[N-] [SPN0192, (1S,3R,4R,7S)-(7-azido-3-(N6-(3-iodobenzyl)-adenin-9-yl)-2,5-dioxabicyclo[2:2:1]hept-1-yl)-N-methylcarboxamide]
